Drawing on patent US7495027B2, “3-aryl-4-hydroxyfuranone compounds and the human and animal health use thereof” (Wyeth, priority 2003, dated 2009), this text covers Rating and Mortality for 40 molecules.

Molecules are shown by their SMILES.

Test [1] relates to C. elegans. The experiment in a line: Efficacy against nematodes (C. elegans motility rating). More on the design: key: 0: no effect; 7: reduced movement in 24 h; 8: dead in 24 h; 9: dead in 4 h. The settings on record: observations at 4 h and 24 h postimmersion. Put shortly:
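Mixed-stage C. elegans (~50 per well, L1 to adult) in M9 buffer exposed to test compound at 100 ppm, 150 ppm or 200 μM final. Motility of larvae and adults scored under dissecting microscope at 4 h and 24 h.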

The test system of test [2] is Trichostrongylus columbriformis. In words: In vivo efficacy against T. colubriformis in infected gerbils. Conditions: gerbils infected with T. colubriformis, single oral dose of 50 mg/kg by gavage, worm counts four days post-treatment, % mortality as compared to negative control. The procedure:
In Vivo Evaluation of the Efficacy of Test Compounds Against T. colubriformis
In this evaluation, gerbils are infected with Trichostrongylus columbriformis infective larvae at a concentration of approximately 800 L3/mL. Larvae for gerbil infections are cultured from feces from sheep previously infected with T. colubriformis. One week post infection, test compounds are administered by gavage as a single oral dose of 50 mg/kg of body weight. For each group of 3 gerbils, 10 mg of test compound are dissolved in 2 mL of PEG 400:DMSO (1:2 v/v) and each animal is administered the test solution at a rate of 0.1 mL/10 g of body weight. […] All animals are observed daily for morbidity and mortality. Four days post-treatment, all animals are weighed and necropsied. Worm counts are conducted with the use of stereoscopes and counters.

`N#Cc1ccc(C=C2OC(=O)C(c3cccc(Cl)c3)=C2O)cc1` (mixture of isomers) [R=H; R1=3-Cl—C6H4**; R2=4-CN—C6H4] had a Rating in test [1] (dose 100 ppm) of 9. Also, the Mortality in test [2] worked out at 43.70%.

Consider `O=C1OC(=Cc2ccc(Cl)cc2)C(O)=C1c1cccc(Cl)c1` (mixture of isomers) [R=H; R1=3-Cl—C6H4**; R2=4-Cl—C6H4], for which, in test [1] (dose 100 ppm), the Rating stood at 9. The same molecule yielded a Mortality in test [2] of 18.80%.

Regarding `O=C1OC(=Cc2ccc(F)cc2)C(O)=C1c1cccc(Cl)c1` (mixture of isomers) [R=H; R1=3-Cl—C6H4**; R2=4-F—C6H4], the Rating in test [1] (dose 100 ppm) stood at 9. Moreover, the Mortality in test [2] was 3.00%.

With `N#Cc1ccc(C2=C(O)C(=Cc3cccc(C(F)(F)F)c3)OC2=O)cc1` (mixture of isomers) [R=H; R1=4-CN—C6H4**; R2=3-CF3—C6H4], in test [1] (dose 100 ppm), the Rating is recorded as 9. The Mortality in test [2] is recorded as 50.00%.

In test [1] (dose 100 ppm), `N#Cc1ccc(C2=C(O)C(=Cc3ccc(F)cc3)OC2=O)cc1` (mixture of isomers) [R=H; R1=4-CN—C6H4**; R2=4-F—C6H4] showed a Rating of 9. Also, the Mortality in test [2] is recorded as 82.10%.

With `N#Cc1ccc(C2=C(O)C(=Cc3ccc(OC(F)(F)C(F)F)cc3)OC2=O)cc1` (mixture of isomers) [R=H; R1=4-CN—C6H4**; R2=4-OCF2CHF2—C6H4], in test [1] (dose 100 ppm), the Rating was found to be 9. The molecule further registered a Mortality in test [2] of 92.80%.

In turn, `N#Cc1ccc(C2=C(O)C(=Cc3ccc(OC(F)F)cc3)OC2=O)cc1` (mixture of isomers) [R=H; R1=4-CN—C6H4**; R2=4-OCHF2—C6H4] had a Rating in test [1] (dose 100 ppm) of 9. This molecule had a Mortality in test [2] of 48.40%.

As for `O=C1OC(=Cc2ccc(Cl)cc2Cl)C(O)=C1c1ccc(Cl)cc1` (mixture of isomers) [R=H; R1=4-Cl—C6H4**; R2=2,4-diCl—C6H4], the Rating in test [1] (dose 100 ppm) stood at 9. Further, the Mortality in test [2] turned out to be 91.40%.

In test [1] (dose 100 ppm), `O=C1OC(=Cc2ccc(Cl)c(Cl)c2)C(O)=C1c1ccc(Cl)cc1` (mixture of isomers) [R=H; R1=4-Cl—C6H4**; R2=3,4-diCl—C6H4] had a Rating of 9. The same molecule yielded a Mortality in test [2] of 58.0%.

In turn, `O=C1OC(=Cc2ccc(C(F)(F)F)cc2)C(O)=C1c1ccc(F)cc1` (mixture of isomers) [R=H; R1=4-F—C6H4**; R2=4-CF3—C6H4] displayed a Rating in test [1] (dose 100 ppm) of 9. In test [2], the Mortality is recorded as 25.60%.

Take `N#Cc1ccc(C=C2OC(=O)C(c3ccc(F)cc3)=C2O)cc1` (mixture of isomers) [R=H; R1=4-F—C6H4**; R2=4-CN—C6H4]: in test [1] (dose 100 ppm), the Rating was found to be 9. Besides, the Mortality in test [2] is recorded as 14.70%.

`O=C1OC(=Cc2ccc(Cl)cc2)C(O)=C1c1ccc(F)cc1` (mixture of isomers) [R=H; R1=4-F—C6H4**; R2=4-Cl—C6H4] had a Rating in test [1] (dose 100 ppm) of 9. In addition, the Mortality in test [2] is listed as 0.00%.

Regarding `O=C1OC(=Cc2ccc(F)cc2)C(O)=C1c1ccc(F)cc1` (mixture of isomers) [R=H; R1=4-F—C6H4**; R2=4-F—C6H4], the Rating in test [1] (dose 100 ppm) was 9. In test [2], this molecule showed a Mortality of 0.00%.

Consider `O=C1OC(=Cc2ccc(OC(F)(F)F)cc2)C(O)=C1c1ccc(F)cc1` (mixture of isomers) [R=H; R1=4-F—C6H4**; R2=4-OCF3—C6H4], for which the Rating in test [1] (dose 100 ppm) is 9. For the same molecule, in test [2], the Mortality was found to be 51.60%.

Regarding `O=C1OC(=Cc2cc(C(F)(F)F)ccc2F)C(O)=C1c1ccc(OC(F)(F)F)cc1` (mixture of isomers) [R=H; R1=4-OCF3—C6H4**; R2=2-F-5-CF3—C6H3], the Rating in test [1] (dose 100 ppm) is listed as 9. The molecule further showed a Mortality in test [2] of 29.50%.

Turning to `O=C1OC(=Cc2cc(Cl)cc(Cl)c2)C(O)=C1c1ccc(OC(F)(F)F)cc1` (mixture of isomers) [R=H; R1=4-OCF3—C6H4**; R2=3,5-diCl—C6H3], the Rating in test [1] (dose 100 ppm) came to 9. In addition, the Mortality in test [2] is on record as 33.40%.

`O=C1OC(=Cc2ccc(C(F)(F)F)c(F)c2)C(O)=C1c1ccc(OC(F)(F)F)cc1` (mixture of isomers) [R=H; R1=4-OCF3—C6H4**; R2=3-F-4-CF3—C6H3] had a Rating in test [1] (dose 100 ppm) of 9. The same molecule returned a Mortality in test [2] of 44.20%.

For `O=C1OC(=Cc2ccc(OC(F)F)cc2)C(O)=C1c1ccc(OC(F)(F)F)cc1` (mixture of isomers) [R=H; R1=4-OCF3—C6H4**; R2=4-OCHF2—C6H4], in test [1] (dose 100 ppm), the Rating was determined as 9. Moreover, the Mortality in test [2] amounted to 44.20%.

On to `O=C1OC(=Cc2ccc(Oc3ccccc3)cc2)C(O)=C1c1ccc(OC(F)(F)F)cc1` (mixture of isomers) [R=H; R1=4-OCF3—C6H4**; R2=4-phenoxy-C6H4], for which, in test [1] (dose 100 ppm), the Rating amounted to 0. The molecule further displayed a Mortality in test [2] of 0.00%.

The molecule `O=C1OC(=Cc2ccccn2)C(O)=C1c1ccc(OC(F)(F)F)cc1` (mixture of isomers) [R=H; R1=4-OCF3—C6H4**; R2=pyridine-2-yl] yielded a Rating in test [1] (dose 100 ppm) of 0. In test [2], this molecule came in with a Mortality of 0.00%.

Take `O=C1OC(=Cc2cccnc2)C(O)=C1c1ccc(OC(F)(F)F)cc1` (mixture of isomers) [R=H; R1=4-OCF3—C6H4**; R2=pyridine-3-yl]: the Rating in test [1] (dose 100 ppm) was found to be 0. For the same molecule, in test [2], the Mortality is 0.00%.

Consider `O=C1OC(=Cc2cccs2)C(O)=C1c1ccc(OC(F)(F)F)cc1` (mixture of isomers) [R=H; R1=4-OCF3—C6H4**; R2=thiophen-2-yl], for which the Rating in test [1] (dose 100 ppm) is reported as 0. In test [2], this molecule displayed a Mortality of 0.00%.

`O=C1OC(=Cc2ccc3ccccc3c2)C(O)=C1c1cccc2ccccc12` [R=H; R1=1-naphthyl; R2=2-naphthyl] came in with a Rating in test [1] (dose 150 ppm) of 9. This molecule also had a Mortality in test [2] of 28.90%.

On to `O=C1O/C(=C\c2ccc(-c3ccccc3)cc2)C(O)=C1c1cccc2ccccc12` [R=H; R1=1-naphthyl; R2=4-biphenyl], for which the Rating in test [1] (dose 150 ppm) is given as 9. Further, in test [2], the Mortality is given as 18.50%.

`O=C1O/C(=C\c2ccc(-c3ccccc3)cc2)C(O)=C1c1ccc(Cl)cc1Cl` [R=H; R1=2,4-diCl—C6H3; R2=4-biphenyl] registered a Rating in test [1] (dose 150 ppm) of 9. For the same molecule, the Mortality in test [2] is 24.50%.

In test [1] (dose 150 ppm), `O=C1O/C(=C\c2ccc(-c3ccccc3)cc2)C(O)=C1c1ccccc1C(F)(F)F` [R=H; R1=2-CF3—C6H4; R2=4-biphenyl] yielded a Rating of 8. Moreover, the Mortality in test [2] is reported as 20.20%.

As for `O=C1O/C(=C\c2cccc3ccccc23)C(O)=C1c1ccc2ccccc2c1` [R=H; R1=2-naphthyl; R2=1-naphthyl], in test [1] (dose 150 ppm), the Rating came out at 9. The same molecule registered a Mortality in test [2] of 36.10%.

`O=C1O/C(=C\c2ccc3ccccc3c2)C(O)=C1c1ccc2ccccc2c1` [R=H; R1=2-naphthyl; R2=2-naphthyl] showed a Rating in test [1] (dose 150 ppm) of 9. This molecule yielded a Mortality in test [2] of 13.80%.

With `O=C1O/C(=C\c2ccc(-c3ccccc3)cc2)C(O)=C1c1ccc(Cl)c(Cl)c1` [R=H; R1=3,4-diCl—C6H3; R2=4-biphenyl], the Rating in test [1] (dose 150 ppm) is 9. This molecule also yielded a Mortality in test [2] of 23.00%.

As for `O=C1O/C(=C\c2cccc3ccccc23)C(O)=C1c1cc(Cl)cc(Cl)c1` [R=H; R1=3,5-diCl—C6H3; R2=1-naphthyl], the Rating in test [1] (dose 150 ppm) came out at 9. For the same molecule, the Mortality in test [2] was 0.00%.

For the molecule `O=C1O/C(=C\c2ccc3ccccc3c2)C(O)=C1c1cccc(C(F)(F)F)c1` [R=H; R1=3-CF3—C6H4; R2=2-naphthyl], in test [1] (dose 150 ppm), the Rating worked out at 9. The molecule also yielded a Mortality in test [2] of 35.20%.

For the molecule `O=C1O/C(=C\c2cccc(C(F)(F)F)c2)C(O)=C1c1cccc(C(F)(F)F)c1` [R=H; R1=3-CF3—C6H4; R2=3-CF3—C6H4], the Rating in test [1] (dose 150 ppm) came out at 9. For the same molecule, the Mortality in test [2] came out at 10.10%.

`O=C1O/C(=C\c2ccc(Cl)cc2)C(O)=C1c1cccc(C(F)(F)F)c1` [R=H; R1=3-CF3—C6H4; R2=4-Cl—C6H4] gave a Rating in test [1] (dose 100 ppm) of 9. Further, the Mortality in test [2] amounted to 21.60%.

`COc1ccc(/C=C2\OC(=O)C(c3cccc(C(F)(F)F)c3)=C2O)cc1` [R=H; R1=3-CF3—C6H4; R2=4-OCH3—C6H4] had a Rating in test [1] (dose 150 ppm) of 9. In test [2], this molecule came in with a Mortality of 3.10%.

In the case of `CC(=O)c1cccc(C2=C(O)C(=Cc3cccc4ccccc34)OC2=O)c1` [R=H; R1=3-COCH3—C6H4; R2=1-naphthyl], the Rating in test [1] (dose 150 ppm) amounted to 8. In test [2], this molecule came in with a Mortality of 10.70%.

In test [1] (dose 150 ppm), `O=C1OC(=Cc2ccc(-c3ccccc3)cc2)C(O)=C1c1cccc(Cl)c1` [R=H; R1=3-Cl—C6H4; R2=4-biphenyl] displayed a Rating of 9. In test [2], this molecule displayed a Mortality of 19.40%.

`N#Cc1ccc(C2=C(O)C(=Cc3ccc(-c4ccc(C#N)cc4)cc3)OC2=O)cc1` [R=H; R1=4-CN—C6H4*; R2=4-(4′-CN-biphenyl)] gave a Rating in test [1] (dose 150 ppm) of 9. In test [2], this molecule displayed a Mortality of 88.07%.

In test [1] (dose 150 ppm), `N#Cc1ccc(C2=C(O)C(=Cc3ccccc3C(F)(F)F)OC2=O)cc1` [R=H; R1=4-CN—C6H4; R2=2-CF3—C6H4] gave a Rating of 7. The molecule also had a Mortality in test [2] of 69.78%.

Molecule `N#Cc1ccc(-c2ccc(/C=C3\OC(=O)C(c4ccc(Cl)cc4)=C3O)cc2)cc1` [R=H; R1=4-Cl—C6H4*; R2=4-(4′-CN-biphenyl)] yielded a Rating in test [1] (dose 150 ppm) of 9. Also, the Mortality in test [2] (50 mg/kg) turned out to be 23.80%.

On to `O=C1O/C(=C\c2cccc3ccccc23)C(O)=C1c1ccc(Cl)cc1` [R=H; R1=4-Cl—C6H4; R2=1-naphthyl], for which, in test [1] (dose 150 ppm), the Rating is recorded as 9. The Mortality in test [2] came to 0.00%.
